Data published in patent US7425556B2 (priority 2005, dated 2008).

What was measured:
[1] = target: T1, GABAA1 (human α1β2γ2 GABAA receptor) (Homo sapiens, UniProt P14867+P18507); assay: Two-electrode voltage-clamp in Xenopus oocytes, potentiation of GABA EC10 current, GABAA1; type: cell-based; conditions: percentage potentiation of GABA EC10 current divided by that of diazepam
T1 construct: expressed in transfected cells; host or cells: Xenopus laevis oocytes injected with capped cRNA
Source text: (§1) Presently available GABAA modulator anxiolytics work via interactions at the classical benzodiazepine binding site. To a large degree these anxiolytics lack GABAA receptor subtype-selectivity. The subtype-selective GABAA receptor modulators may offer more advantages. […] Sedation, a side-effect common to all marketed benzodiazepines, is believed to be mediated by interactions at GABAARs containing the α1 subunit. To develop anxiolytics with minimal liabilities due to interactions with other subunits, an electrophysiological assay was developed to screen modulatory effects of various compounds on different GABA subunit combinations heterologously expressed in Xenopus oocytes.
(§2) GABAA receptors were heterologously expressed in Xenopus oocytes by injecting cRNA corresponding to human α1, α2, α3, α5, β2, β3 and γ2 subunits of the GABAA receptor genes. The specific subunit combinations (subtypes) were as follows: α1β2γ2, α2β3γ2, α3β3γ2, and α5β3γ2. The EC10 of GABA was approximated for each cell. Stability of GABA-mediated (EC10) current was established. Modulatory effect of test compound was determined and compared across subtypes. […] Thus, the assay can characterize modulatory effects and determine subtype selectivity of test compounds on major subtypes of GABAA receptors.
(§3) Xenopus laevis frogs (Xenopus I, Kalamazoo, MI) were anesthetized using 0. […] Surgically removed ovarian lobes were teased out in OR2 solution (82 NaCl, 2.5 KCl, 5 HEPES, 1.5 NaH2PO4, 1 MgCl2, 0.1 EDTA, in mM, pH 7.4). The acolytes were deflocculated by incubation in 25 mL OR2 containing 0.2% collagens 1A (SIGMA) two times for about 60 minutes on a platform shaker and stored in Leibovitz's L-15 medium. Acolytes were injected the following day in 0.5× Leibovitz's L-15 medium containing […] gentamycin, 10 units/ml penicillin, and […] streptomycin.
(§4) Capped cRNAs from the linear zed vectors containing human α1, β2 and γ2 subunits of the GABAA receptor genes were mixed in ratio of […]. Acolytes were injected with 25-50 nL of mixed RNA with an appx molar ratio for α1, β2 and γ2 as 1:1:10. Acolyte recordings were done 2-10 days after injection. The same methods apply to subtypes derived from α2β3γ2, α3β3γ2, and α5β3γ2, except for 1:1:1 ratio was used for α, β, and γ subunits.
(§5) All measurements were done in a medium containing ND-96 (96 NaCl, 2 KCl, 1.8 CaCl2.2H2O, 1 MgCl2.6H2O, 5 HEPES, in mM, pH 7.5). Two-electrode voltage-clamp recording was carried out using Opus press amplifier (Axon Instruments, Foster City, Calif.), which allows simultaneous recording from 8 acolytes. Acolytes were impaled with two electrodes of 1-2 MΩ tip resistance when filled with 3M KCl. Recordings were begun when membrane potential became stable at potentials negative to −50-−60 mV. Membrane potential was held at −60 mV. […] The concentration of GABA corresponded to the EC10 value calculated for each acolyte. The modulator pulses started 30 s before the GABA pulse so as to allow preoccupation with the modulator. A set of 3 pulses with just GABA without modulator was given prior to the modulator-containing pulses to define the baseline GABA response. Two acolytes per each experiment were dedicated to observe the effect of diazepam on GABA response to ensure the presence of γ subunit in the GABAA pantomimic complex, which imparts diazepam sensitivity to the complex.
(§6) Current amplitude (i) was measured from baseline to peak using Clamp fit (Axon Inst., Foster City, Calif.). Potentiating was calculated as percent change from the baseline GABA current flux 100×(imod/icontrol)−1) where imod=current mediated by modulator+GABA and icontrol=current mediated by GABA alone. […] Similarly, a value of −50% potentiating means the presence of modulator caused a 50% decrease in the control current.

[2] = target: T2, GABAA2 receptors (α2, β3, γ2 receptor subunits) (Homo sapiens, UniProt P18507+P47869); assay: biochemical; conditions: [3H]-Flunitrazepam ~2 nM, α2β3γ2 Sf9 membranes, 1 hr at 4° C.; read-out: GABAA2 Binding Ki
T2 construct: host or cells: Sf9 cells (membranes)
T2 sequence (P47869 29-451): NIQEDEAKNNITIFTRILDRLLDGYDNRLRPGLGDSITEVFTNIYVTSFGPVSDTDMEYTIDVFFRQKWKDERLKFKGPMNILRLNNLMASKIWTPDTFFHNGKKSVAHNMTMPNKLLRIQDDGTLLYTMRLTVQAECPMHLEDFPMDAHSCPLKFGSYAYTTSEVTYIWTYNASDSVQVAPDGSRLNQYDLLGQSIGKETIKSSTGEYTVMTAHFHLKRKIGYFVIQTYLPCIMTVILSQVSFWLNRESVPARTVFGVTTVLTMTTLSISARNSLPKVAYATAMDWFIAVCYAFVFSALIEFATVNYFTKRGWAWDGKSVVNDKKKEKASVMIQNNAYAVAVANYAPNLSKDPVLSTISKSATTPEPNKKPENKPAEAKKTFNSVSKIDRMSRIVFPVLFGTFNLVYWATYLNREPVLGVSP
T2 sequence (P28472 26-473 partner): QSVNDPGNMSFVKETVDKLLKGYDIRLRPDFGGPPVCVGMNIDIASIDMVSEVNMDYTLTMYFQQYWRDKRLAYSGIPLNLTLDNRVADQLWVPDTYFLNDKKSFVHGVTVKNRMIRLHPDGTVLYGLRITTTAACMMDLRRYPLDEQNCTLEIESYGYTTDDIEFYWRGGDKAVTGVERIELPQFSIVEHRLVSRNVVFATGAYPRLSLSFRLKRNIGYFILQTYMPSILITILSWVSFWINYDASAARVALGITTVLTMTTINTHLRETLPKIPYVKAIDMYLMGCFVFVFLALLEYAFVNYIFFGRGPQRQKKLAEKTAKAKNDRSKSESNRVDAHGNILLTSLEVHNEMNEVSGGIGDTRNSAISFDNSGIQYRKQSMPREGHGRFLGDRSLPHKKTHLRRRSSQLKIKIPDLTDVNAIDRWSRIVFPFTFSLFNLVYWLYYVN
T2 sequence (P18507 40-475): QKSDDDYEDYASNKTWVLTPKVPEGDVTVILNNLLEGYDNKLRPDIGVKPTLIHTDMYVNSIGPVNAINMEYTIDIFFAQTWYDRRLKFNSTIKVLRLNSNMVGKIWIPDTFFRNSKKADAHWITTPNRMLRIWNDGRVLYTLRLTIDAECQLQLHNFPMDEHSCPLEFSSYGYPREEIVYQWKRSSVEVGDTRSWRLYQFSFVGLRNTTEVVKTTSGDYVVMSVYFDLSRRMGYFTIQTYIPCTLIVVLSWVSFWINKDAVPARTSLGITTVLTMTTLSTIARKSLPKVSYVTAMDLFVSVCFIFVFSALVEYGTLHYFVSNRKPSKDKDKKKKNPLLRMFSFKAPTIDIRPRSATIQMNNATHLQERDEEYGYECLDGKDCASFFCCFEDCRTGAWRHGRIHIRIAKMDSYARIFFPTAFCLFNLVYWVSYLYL
Protocol: In some embodiments, the binding test was directed to a subtype of GABAA receptors, such as GABAA1 receptors (i.e., those containing the α1 subunit), GABAA2 receptors (i.e., those containing the α2 subunit), GABAA3 receptors (i.e., those containing the α3 subunit) and GABAA5 receptors (i.e., those containing the α5 subunit).
[formula] Method FF GABAA2 Binding Method Reagents
Assay and Wash Buffer: 50 mM Tris-Citrate, 200 mM NaCl, pH 7.8
Compounds at 10 mM in DMSO: Put 75 μl in column 1 of compound plate.
Flumazenil, 10 mM (for NSB)
[^3H]-Flunitrazepam (Cat #NET567): Prepare 10× stock=20 nM, [F} in assay=˜2 nM
1. […] Add 5 ul of 30 uM flumazenil to wells 12 D-E for 50% control wells.
2. Spot 2 μl of compound dilutions into dry plate (Automation Program 3). Manually spot 2 μl 10 mM flumazenil into wells 12 F-H for nonspecific control.
3. Make 1:100 dilution in assay buffer (2 μl into 200 μl) and dispense 25 μl compound into assay plates (Automation Program 4).
4. Dispense 200 μl membranes into assay plate (Automation Program 5).
5. Add 25 μl [^3H]-Flunitrazepam (Automation Program 6). Incubate for 1 hr at 4° C.
6. Collect membranes on a cell harvester onto GF/B filter plates (pre-wet with dH2O and wash 5×400 μl/well, with cold assay buffer. (First 3 washes are considered hot; last two are cold.)
7. Dry plates for 2-3 hours at RT.
8. Add 40 μl Microsecond 40/well (Automation Program 7); seal plates. Count on a Top Count.
Data is analyzed by calculating percent of control, IC50, and Kid in an Lift template. The following formula is used in the templates: […]

[3] = target: T3, GABAA2 (human α2β3γ2 GABAA receptor) (Homo sapiens, UniProt P18507+P47869); assay: Two-electrode voltage-clamp in Xenopus oocytes, potentiation of GABA EC10 current, GABAA2; type: cell-based; conditions: percentage potentiation of GABA EC10 current divided by that of diazepam
T3 construct: expressed in transfected cells; host or cells: Xenopus laevis oocytes injected with capped cRNA
T3 sequence (P47869 29-451): as the sequence (P47869 29-451) above
T3 sequence (P28472 26-473 partner): as the sequence (P28472 26-473 partner) above
T3 sequence (P18507 40-475): as the sequence (P18507 40-475) above
Source text: as §1, §2, §3, §4, §5, §6

T1 sequence (P14867 28-456): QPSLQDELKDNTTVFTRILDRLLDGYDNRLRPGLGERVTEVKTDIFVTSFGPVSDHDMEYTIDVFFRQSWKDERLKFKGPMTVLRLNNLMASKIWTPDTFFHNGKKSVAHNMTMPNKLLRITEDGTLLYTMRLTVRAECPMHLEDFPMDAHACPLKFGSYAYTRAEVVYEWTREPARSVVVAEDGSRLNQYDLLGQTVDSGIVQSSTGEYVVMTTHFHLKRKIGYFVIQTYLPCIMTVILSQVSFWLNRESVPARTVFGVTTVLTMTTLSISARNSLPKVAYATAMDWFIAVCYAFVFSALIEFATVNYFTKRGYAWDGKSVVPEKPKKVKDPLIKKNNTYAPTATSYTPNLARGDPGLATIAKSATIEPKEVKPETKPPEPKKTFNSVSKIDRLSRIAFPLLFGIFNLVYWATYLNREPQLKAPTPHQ
T1 sequence (P47870 25-512 partner limits assumed): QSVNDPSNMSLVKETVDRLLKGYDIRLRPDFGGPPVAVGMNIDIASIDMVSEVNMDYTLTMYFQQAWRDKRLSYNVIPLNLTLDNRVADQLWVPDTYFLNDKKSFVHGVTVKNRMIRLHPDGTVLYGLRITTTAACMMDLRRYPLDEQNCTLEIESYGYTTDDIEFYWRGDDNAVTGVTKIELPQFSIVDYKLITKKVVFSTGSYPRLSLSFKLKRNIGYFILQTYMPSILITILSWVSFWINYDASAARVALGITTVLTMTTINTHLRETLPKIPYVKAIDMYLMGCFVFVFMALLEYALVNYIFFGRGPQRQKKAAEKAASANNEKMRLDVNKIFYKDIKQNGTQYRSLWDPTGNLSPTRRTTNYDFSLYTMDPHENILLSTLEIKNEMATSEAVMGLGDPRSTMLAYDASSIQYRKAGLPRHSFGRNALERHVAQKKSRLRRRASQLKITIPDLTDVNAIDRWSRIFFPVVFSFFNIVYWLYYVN
T1 sequence (P18507 40-475): as the sequence (P18507 40-475) above

SMILES	Relative Potentiation for GABAA1 [1]	Ki [2]	Relative Potentiation for GABAA2 [3]
CCCNC(=O)c1nnc2c(-c3cc(F)ccc3C)cccc2c1N	0.02	5.56 nM	0.22
CCCNC(=O)c1nnc2c(-c3cc(C(F)(F)F)cc(C(F)(F)F)c3)cccc2c1N	0.44	356 nM	0.13
CCCNC(=O)c1nnc2c(-c3ccc(OC)c(F)c3)cccc2c1N	0.03	20.2 nM	0.19
CCCNC(=O)c1nnc2c(-c3ccc(F)cc3OCC)c(F)ccc2c1N	0.27	1.03 nM	
CCCNC(=O)c1nnc2c(-c3cccc(Cl)c3)cccc2c1N	0.18	12.3 nM	0.53
CCCNC(=O)c1nnc2c(-c3ccc(F)cc3F)cccc2c1N	−0.088	1.72 nM	0.12
COc1cccc(F)c1-c1cccc2c(N)c(C(=O)NC3CC3)nnc12	−0.048	0.698 nM	0.16
CCCNC(=O)c1nnc2c(-c3cc(C)ccc3C)c(Cl)ccc2c1N	0.24	11.2 nM	0.22
CCCNC(=O)c1nnc2c(-c3ccccc3)c(OC)ccc2c1N	0.12	91.4 nM	0.08
CCNC(=O)c1nnc2c(-c3cc(C)ccc3OC)cccc2c1N	0.23	10.5 nM	
CCCNC(=O)c1nnc2c(-c3cccnc3)cccc2c1N	−0.11	2.6 nM	0.054
CCCNC(=O)c1nnc2c(-c3ccc(N(C)C)cc3)cccc2c1N	0.07	26.6 nM	0.18
CCCNC(=O)c1nnc2c(-c3cc(F)ccc3F)cccc2c1N	−0.078	0.996 nM	0.29
CCCNC(=O)c1nnc2c(-c3cc(F)cc(F)c3)cccc2c1N	−0.018	8.6 nM	0.26
CCCNC(=O)c1nnc2c(-c3ccc(OC)cc3C(F)(F)F)cccc2c1N	0.12	2.42 nM	0.16
CCCNC(=O)c1nnc2c(-c3ccc(C)cc3)cccc2c1N	0.013	29 nM	0.11
CCCNC(=O)c1nnc2c(-c3cc(Cl)ccc3OC)c(F)ccc2c1N	0.25	0.327 nM	
CCNC(=O)c1nnc2c(-c3cnc(OC)c(F)c3)cccc2c1N	−0.010	9 nM	
CCCNC(=O)c1nnc2c(-c3cc(C(=O)N4CCC4)ccc3OC)cccc2c1N	0.48	18.4 nM	
COc1ccc(-c2cccc3c(N)c(C(=O)NC4CCC4)nnc23)c(OC)c1	0.091	0.927 nM	
CCCNC(=O)c1nnc2c(-c3cc(C)ccc3OC)c(Cl)ccc2c1N	0.47	2.89 nM	
COc1ccc(-c2cccc3c(N)c(C(=O)NC4CC4)nnc23)c(OC)c1		2.07 nM	
